Data: the supplement of paper PMC10307832

What was measured:
Test in all cases: relative viability (nuclei count vs DMSO), 5 days (fraction); higher = more cells survive
Mirin + Trametinib = compound: N=C1NC(=O)/C(=C/c2ccc(O)cc2)S1 [Mirin] + CC(=O)Nc1cccc(-n2c(=O)n(C3CC3)c(=O)c3c(Nc4ccc(I)cc4F)n(C)c(=O)c(C)c32)c1 [Trametinib] (partner 0.02 µM)
Method in brief: (§1)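 One day after seeding in 1536-well plates, lung cancer cell lines were dosed by pin tool. Dosing was either single-drug or a fixed anchor-drug dose plus five library-drug doses (not always all listed) in √10 steps. After 5 days, nuclei were stained in one fix-and-stain step and counted on 4× images, and relative viability is the nuclei count of treated wells over that of vehicle wells, given as the median of duplicate plates.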

[1] = compound: CCn1c(-c2nonc2N)nc2cnc(Oc3cccc(NC(=O)c4ccc(OCCN5CCOCC5)cc4)c3)cc21 + Cc1nc(Nc2ncc(C(=O)Nc3c(C)cccc3Cl)s2)cc(N2CCN(CCO)CC2)n1 [Dasatinib] (partner 0.075 µM)
Method in brief: as §1

Mirin + Bortezomib = compound: N=C1NC(=O)/C(=C/c2ccc(O)cc2)S1 [Mirin] + CC(C)C[C@H](NC(=O)[C@H](Cc1ccccc1)NC(=O)c1cnccn1)B(O)O [Bortezomib] (partner 0.002 µM)
Method in brief: as §1

[2] = compound: CCC1=CN=CN=C1N2CCN(CC2)CC3=NC4=C(N3)C=C(C=C4)C(F)(F)F + Nc1ncn([C@H]2C[C@H](O)[C@@H](CO)O2)c(=O)n1 [Decitabine] (partner 2 µM)
Method in brief: as §1

| Cell Line | relative viability (Mirin + Trametinib; first compound 0.25 µM) | relative viability (Mirin + Trametinib; first compound 0.7906 µM) | relative viability (Mirin + Trametinib; first compound 2.5 µM) | relative viability (Mirin + Trametinib; first compound 7.906 µM) | relative viability (Mirin + Trametinib; first compound 25 µM) | relative viability ([1]; first compound 0.04 µM) | relative viability ([1]; first compound 0.1265 µM) | relative viability ([1]; first compound 1.265 µM) | relative viability ([1]; first compound 4 µM) | relative viability (Mirin + Bortezomib; first compound 0.25 µM) | relative viability (Mirin + Bortezomib; first compound 0.7906 µM) | relative viability (Mirin + Bortezomib; first compound 2.5 µM) | relative viability (Mirin + Bortezomib; first compound 7.906 µM) | relative viability (Mirin + Bortezomib; first compound 25 µM) | relative viability ([2]; first compound 0.04 µM) | relative viability ([2]; first compound 0.1265 µM) | relative viability ([2]; first compound 0.4 µM) | relative viability ([2]; first compound 4 µM) | relative viability ([1]; first compound 0.4 µM) | relative viability ([2]; first compound 1.265 µM) |
| --- | --- | --- | --- | --- | --- | --- | --- | --- | --- | --- | --- | --- | --- | --- | --- | --- | --- | --- | --- | --- |
| NCI-H1792 | 0.422 | 0.36 | 0.43 | 0.421 | 0.332 | 0.954 | 0.514 | 0.405 | 0.488 | 0.982 | 0.997 | 0.902 | 0.883 | 0.984 | 0.543 | 0.437 | 0.57 | 0.523 |  |  |
| NCI-H647 | 0.475 | 0.605 | 0.548 | 0.524 | 0.474 | 0.145 | 0.0946 | 0.122 | 0.0956 | 1.24 | 0.909 | 1.04 | 0.816 | 0.444 | 0.449 | 0.273 | 0.356 | 0.301 | 0.0784 | 0.325 |
| NCI-H520 | 0.542 | 0.571 | 0.659 | 0.603 | 0.477 | 0.166 | 0.174 | 0.163 | 0.139 | 0.503 | 0.13 | 0.632 | 0.355 | 0.358 | 0.598 | 0.414 | 0.426 | 0.436 | 0.166 | 0.424 |
| HCC-366 | 0.382 | 0.348 | 0.33 | 0.337 | 0.28 | 0.699 | 0.504 | 0.0451 | 0.0508 | 1.06 | 0.986 | 1.09 | 0.981 | 0.977 | 0.356 | 0.288 | 0.317 | 0.353 | 0.0838 | 0.307 |
| NCI-H2085 | 0.514 | 0.465 | 0.519 | 0.511 | 0.59 | 0.307 | 0.308 | 0.251 | 0.223 | 1.13 | 0.972 | 1.18 | 0.975 | 1.02 | 0.487 | 0.526 | 0.557 | 0.573 | 0.396 | 0.476 |
| PC-3 [JPC-3] | 0.669 | 0.72 | 0.7 | 0.73 | 0.786 | 0.981 | 0.902 | 0.728 | 0.648 | 0.768 | 0.889 | 0.841 | 0.941 | 0.967 |  | 0.779 | 0.706 | 0.835 | 0.605 | 0.771 |
| HOP-62 | 0.369 | 0.447 | 0.355 | 0.491 | 0.398 | 0.511 | 0.344 | 0.172 | 0.17 | 0.727 | 0.867 | 0.725 |  | 0.836 | 0.185 | 0.199 | 0.214 | 0.193 | 0.179 | 0.249 |
| NCI-H2126 | 0.604 | 0.568 | 0.552 | 0.56 | 0.501 | 0.628 | 0.522 |  | 0.336 | 1.12 | 1.11 | 1.12 | 1.07 | 1.2 | 0.598 | 0.58 | 0.595 | 0.58 | 0.284 | 0.541 |
